Laboratory results taken from patent US8937088B2, “Ureas for the treatment and prevention of cancer” (Astar Biotech LLC, priority 2011, dated 2015).
Like-named read-outs stand apart in the source and are kept apart here.

Assays:
[1] = test system: patient-derived primary squamous lung 14531 tumor; test: In vivo activity in SCID mouse model with lung cancer, 30-day treatment; details: patient-derived primary squamous lung 14531 tumor in mouse, compared to the control
Text: Biological Test 4. In Vivo Activity in […] SCID Mouse Model with Lung Cancer
Biological Test 5. In Vivo Activity in Senograph SCID Mouse Model with Lung Cancer

[2] = test system: LNCaP (human prostate adenocarcinoma cell line); test: Cell death detection, trypan blue exclusion assay, LNCaP; type: cell-based; details: read-out: Cell Death (%) at Tested Concentration
Experimental: (§1) Biological Test 2. Cell Death Detection Using Trypan Blue Exclusion Assay.
(§2) After drug treatment, cells were harvested by trypsinization with trypsin/EDTA for 10 min at 37° C. As some apoptotic cells detached from the culture substratum into the medium, these cells were also collected by centrifugation of the medium at 1,200 rpm for 5 min. The pooled cell pellets were resuspended and mixed with trypan blue dye. After Trypan blue stain was done, cells were counted by using a light microscope and a hemocytometer. Blue dye-incorporating cells were scored as being dead. Five hundred cells from randomly chosen fields were counted, and the number of dead cells was counted and expressed as a percentage of the total number of cells counted as shown in Tables 2 to 8 below.

[3] = test system: HT29 (human colon adenocarcinoma cell line); test: Cell death detection, trypan blue exclusion assay, HT29; type: cell-based; details: HT29, 5-day treatment
Experimental: as §1, §2

[4] = test system: Hep3B (human hepatoma cell line); test: Cell death detection, trypan blue exclusion assay, Hep3B; type: cell-based; details: 5-day treatment
Experimental: as §1, §2

[5] = test system: HUH7 (human hepatoma cell line); test: Cell death detection, trypan blue exclusion assay, HUH7; type: cell-based; details: Huh-7, 168 h, HUH7, 7-day treatment, read-out: Cell Death (%) at Tested Concentration
Experimental: as §1, §2

[6] = test system: HUH7 (human hepatoma cell line); test: Cell death detection, trypan blue exclusion assay, HUH7, in combination with AZD-6244; type: cell-based; details: HUH7, 6-day treatment, compound 0.5 μM
Experimental: as §1, §2

[7] = test system: HepG2 (human Hepatocellular carcinoma cell line); test: Cell death detection, trypan blue exclusion assay, HepG2; type: cell-based; details: HepG2, 5-day treatment
Experimental: as §1, §2

BRAF = BRAF (Homo sapiens, UniProt P15056); test: In vitro kinase assay (Invitrogen SelectScreen Profiling Service), BRAF; type: biochemical
Experimental: (§3) Biological Test 1. In Vitro Kinase Assay for BRAF, FLT3 and KDR(VEGFR2) The inhibitory activities of the compounds of the invention were measured by Invitrogen's SelectScreen® Profiling Service.

FLT3 = target: T1, FLT3 (Homo sapiens, UniProt P36888); test: In vitro kinase assay (Invitrogen SelectScreen Profiling Service), FLT3; type: biochemical; details: FLT3, 0.1 μM
T1 sequence (P36888 27-993): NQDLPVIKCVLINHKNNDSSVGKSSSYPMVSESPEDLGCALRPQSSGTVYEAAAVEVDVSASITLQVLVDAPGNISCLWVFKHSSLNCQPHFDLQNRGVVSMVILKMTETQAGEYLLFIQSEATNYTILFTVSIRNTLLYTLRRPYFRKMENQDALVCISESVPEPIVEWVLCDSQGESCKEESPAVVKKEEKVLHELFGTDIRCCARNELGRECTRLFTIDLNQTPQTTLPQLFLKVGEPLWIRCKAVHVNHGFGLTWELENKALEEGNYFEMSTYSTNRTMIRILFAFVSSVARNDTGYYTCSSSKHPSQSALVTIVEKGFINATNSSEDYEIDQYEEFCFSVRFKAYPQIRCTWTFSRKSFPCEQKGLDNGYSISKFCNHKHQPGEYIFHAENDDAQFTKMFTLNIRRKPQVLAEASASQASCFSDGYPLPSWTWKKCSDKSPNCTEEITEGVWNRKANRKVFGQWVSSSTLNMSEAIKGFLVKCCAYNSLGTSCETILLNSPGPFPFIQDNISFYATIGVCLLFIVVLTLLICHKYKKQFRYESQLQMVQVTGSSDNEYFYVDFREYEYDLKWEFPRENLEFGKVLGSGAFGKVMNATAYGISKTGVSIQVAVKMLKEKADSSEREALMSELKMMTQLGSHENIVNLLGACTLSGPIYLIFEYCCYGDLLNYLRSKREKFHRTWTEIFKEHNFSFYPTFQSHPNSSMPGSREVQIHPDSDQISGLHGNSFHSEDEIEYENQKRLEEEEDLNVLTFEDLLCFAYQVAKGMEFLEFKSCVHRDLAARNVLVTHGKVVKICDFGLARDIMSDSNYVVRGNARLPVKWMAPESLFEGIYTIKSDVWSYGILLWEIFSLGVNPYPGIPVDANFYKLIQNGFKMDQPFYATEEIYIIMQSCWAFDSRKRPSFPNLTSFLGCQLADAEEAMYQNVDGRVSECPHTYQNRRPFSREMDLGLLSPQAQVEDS
Experimental: as §3

KDR(VEGFR2) = KDR(VEGFR2) (Homo sapiens, UniProt P35968); test: In vitro kinase assay (Invitrogen SelectScreen Profiling Service), KDR; type: biochemical
Experimental: as §3

Sequence of BRAF (P15056 whole entry): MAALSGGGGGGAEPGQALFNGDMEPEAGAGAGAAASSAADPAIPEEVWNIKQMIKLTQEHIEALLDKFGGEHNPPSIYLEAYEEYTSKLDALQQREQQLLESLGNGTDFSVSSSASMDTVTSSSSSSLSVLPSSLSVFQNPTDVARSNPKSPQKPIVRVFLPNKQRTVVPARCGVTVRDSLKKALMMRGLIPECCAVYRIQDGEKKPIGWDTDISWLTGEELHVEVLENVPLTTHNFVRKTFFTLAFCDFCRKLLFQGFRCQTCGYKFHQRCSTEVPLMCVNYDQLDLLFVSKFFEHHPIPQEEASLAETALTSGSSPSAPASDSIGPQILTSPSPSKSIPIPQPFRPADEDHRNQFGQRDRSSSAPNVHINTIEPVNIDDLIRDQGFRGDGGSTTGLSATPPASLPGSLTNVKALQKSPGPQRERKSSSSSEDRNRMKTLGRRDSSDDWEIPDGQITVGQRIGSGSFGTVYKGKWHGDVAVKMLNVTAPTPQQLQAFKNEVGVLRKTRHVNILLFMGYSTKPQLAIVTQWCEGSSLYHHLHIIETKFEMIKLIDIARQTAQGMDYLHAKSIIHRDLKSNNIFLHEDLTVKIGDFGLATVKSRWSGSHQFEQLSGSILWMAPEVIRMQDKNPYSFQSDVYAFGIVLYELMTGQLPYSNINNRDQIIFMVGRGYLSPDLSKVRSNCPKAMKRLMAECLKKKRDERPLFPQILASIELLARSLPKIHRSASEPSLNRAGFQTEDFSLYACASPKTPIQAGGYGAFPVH
Sequence of KDR(VEGFR2) (P35968 20-1356): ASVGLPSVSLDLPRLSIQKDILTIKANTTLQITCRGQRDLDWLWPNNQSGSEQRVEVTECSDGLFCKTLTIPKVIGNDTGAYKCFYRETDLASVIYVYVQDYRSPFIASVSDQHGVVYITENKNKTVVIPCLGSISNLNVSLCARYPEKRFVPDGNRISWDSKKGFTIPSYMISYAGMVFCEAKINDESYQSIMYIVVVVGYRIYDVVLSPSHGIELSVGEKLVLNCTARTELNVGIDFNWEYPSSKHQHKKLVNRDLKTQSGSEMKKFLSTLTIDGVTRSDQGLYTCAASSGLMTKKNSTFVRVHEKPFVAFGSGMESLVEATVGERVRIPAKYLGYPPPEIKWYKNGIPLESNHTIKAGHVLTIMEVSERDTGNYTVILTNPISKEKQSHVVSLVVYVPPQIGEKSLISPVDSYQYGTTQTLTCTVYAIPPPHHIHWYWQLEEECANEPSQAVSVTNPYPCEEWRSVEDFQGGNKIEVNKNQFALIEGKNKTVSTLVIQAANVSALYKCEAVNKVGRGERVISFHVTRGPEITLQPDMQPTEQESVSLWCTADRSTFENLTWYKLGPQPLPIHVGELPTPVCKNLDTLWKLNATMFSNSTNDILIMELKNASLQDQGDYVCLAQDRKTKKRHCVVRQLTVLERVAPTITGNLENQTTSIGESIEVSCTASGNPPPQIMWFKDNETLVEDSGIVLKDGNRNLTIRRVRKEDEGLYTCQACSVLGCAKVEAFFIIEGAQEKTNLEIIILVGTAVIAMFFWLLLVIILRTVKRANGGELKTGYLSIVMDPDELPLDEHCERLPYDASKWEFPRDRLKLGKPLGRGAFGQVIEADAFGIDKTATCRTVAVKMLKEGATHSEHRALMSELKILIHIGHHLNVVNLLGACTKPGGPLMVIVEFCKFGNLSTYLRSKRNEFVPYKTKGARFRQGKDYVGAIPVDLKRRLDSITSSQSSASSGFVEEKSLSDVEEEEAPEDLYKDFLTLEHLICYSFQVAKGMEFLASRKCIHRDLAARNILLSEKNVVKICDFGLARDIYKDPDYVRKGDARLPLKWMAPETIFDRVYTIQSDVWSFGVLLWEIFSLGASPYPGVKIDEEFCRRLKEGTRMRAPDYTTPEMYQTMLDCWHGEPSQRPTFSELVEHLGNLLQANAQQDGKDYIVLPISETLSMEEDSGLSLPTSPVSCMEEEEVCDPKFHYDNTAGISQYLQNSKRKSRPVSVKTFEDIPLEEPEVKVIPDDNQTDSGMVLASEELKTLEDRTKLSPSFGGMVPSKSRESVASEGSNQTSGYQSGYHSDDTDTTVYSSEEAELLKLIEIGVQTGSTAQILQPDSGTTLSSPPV

`CNC(=O)c1cc(Oc2ccc(NC(=O)Nc3ccc(S(F)(F)(F)(F)F)cc3)c(F)c2)ccn1` [Example 10, 4-[3-fluoro-4-({[4-(pentafluoro-λ^6-sulfanyl)phenyl]carbamoyl}amino)phenoxy]-N-methylpyridine-2-carboxamide] was tested, and the “effect in reducing the tumor volume” value [1] was “significant effect in reducing the tumor volume”, the cytotoxicity at 1 µM ([2]; 72 h, 3-day treatment) was 1.8% and the cytotoxicity at 2.5 µM ([2]; 72 h, 3-day treatment) was 1.9%. For the same molecule, the cytotoxicity at 5 µM ([2]; 72 h, 3-day treatment) was 9.4%, the cytotoxicity at 7.5 µM ([2]; 72 h, 3-day treatment) was 11.3% and the cytotoxicity at 10 µM ([2]; 72 h, 3-day treatment) was 68.3%. It also gave a cytotoxicity at 1 µM ([2]; 168 h, 7-day treatment) of 2.2%, a cytotoxicity at 2.5 µM ([2]; 168 h, 7-day treatment) of 2.8% and a cytotoxicity at 5 µM ([2]; 168 h, 7-day treatment) of 99%. The cytotoxicity at 7.5 µM ([2]; 168 h, 7-day treatment) was 99%, the cytotoxicity at 10 µM ([2]; 168 h, 7-day treatment) was 99% and the “Cell Death (%) at Tested Concentration” value ([3]; 2.5 uM) was 18.3%. For the same molecule, the “Cell Death (%) at Tested Concentration” value ([3]; 5.0 uM) was 54.6%, the “Cell Death (%) at Tested Concentration” value ([3]; 10 uM) was 56.7% and the “Cell Death (%) at Tested Concentration” value ([4]; 0.25 uM) was 3.4%. For the same molecule, the “Cell Death (%) at Tested Concentration” value ([4]; 3.0 uM) was 7.6%, the “Cell Death (%) at Tested Concentration” value ([4]; 5.0 uM) was 19.5% and the cytotoxicity at 1 µM [5] was 1.9%. It also gave a cytotoxicity at 2.5 µM [5] of 2.2%, a cytotoxicity at 5 µM [5] of 17.2% and a cytotoxicity at 7.5 µM [5] of 87.6%. For the same molecule, the cytotoxicity at 10 µM [5] was 93.7%, the “Cell Death (%) in combination with AZD-6244” value (“Cell Death (%) in combination” below) ([6]; AZD-6244 0 μM) was 1.7% and the “Cell Death (%) in combination” value ([6]; AZD-6244 0.5 μM) was 94.6%. For the same molecule, the “Cell Death (%) at Tested Concentration” value ([7]; 0.25 uM) was 2.7%, the “Cell Death (%) at Tested Concentration” value ([7]; 3.0 uM) was 4.2% and the “Cell Death (%) at Tested Concentration” value ([7]; 5.0 uM) was 4.8%.

For `CNC(=O)c1cc(Oc2ccc(NC(=O)Nc3ccc(Cl)c(S(F)(F)(F)(F)F)c3)cc2)ccn1` [Example 3, 4-[4-({[4-chloro-3-(pentafluoro-λ^6-sulfanyl)phenyl]carbamoyl}amino)phenoxy]-N-methylpyridine-2-carboxamide], the inhibition at 0.1 µM (BRAF) was 11%, the cytotoxicity at 1 µM ([2]; 72 h, 3-day treatment) was 1.3% and the cytotoxicity at 2.5 µM ([2]; 72 h, 3-day treatment) was 1.9%. For the same molecule, the cytotoxicity at 5 µM ([2]; 72 h, 3-day treatment) was 4.3%, the cytotoxicity at 7.5 µM ([2]; 72 h, 3-day treatment) was 13.4% and the cytotoxicity at 10 µM ([2]; 72 h, 3-day treatment) was 91.8%. It also gave a cytotoxicity at 1 µM ([2]; 168 h, 7-day treatment) of 2.3%, a cytotoxicity at 2.5 µM ([2]; 168 h, 7-day treatment) of 2.8% and a cytotoxicity at 5 µM ([2]; 168 h, 7-day treatment) of 99%. For the same molecule, the cytotoxicity at 7.5 µM ([2]; 168 h, 7-day treatment) was 99%, the cytotoxicity at 10 µM ([2]; 168 h, 7-day treatment) was 99% and the inhibition at 0.1 µM (FLT3) was 72%. For the same molecule, the “Cell Death (%) at Tested Concentration” value ([3]; 2.5 uM) was 11.4%, the “Cell Death (%) at Tested Concentration” value ([3]; 5.0 uM) was 16.7% and the “Cell Death (%) at Tested Concentration” value ([3]; 10 uM) was 30.7%. The “Cell Death (%) at Tested Concentration” value ([4]; 0.25 uM) was 3.3%, the “Cell Death (%) at Tested Concentration” value ([4]; 3.0 uM) was 25.6% and the “Cell Death (%) at Tested Concentration” value ([4]; 5.0 uM) was 90.7%. For the same molecule, the cytotoxicity at 1 µM [5] was 2.7%, the cytotoxicity at 2.5 µM [5] was 4.5% and the cytotoxicity at 5 µM [5] was 53.8%. For the same molecule, the cytotoxicity at 7.5 µM [5] was 79.6%, the cytotoxicity at 10 µM [5] was 87.6% and the “Cell Death (%) in combination” value ([6]; AZD-6244 0 μM) was 1.9%. The “Cell Death (%) in combination” value ([6]; AZD-6244 0.5 μM) was 94.6%, the inhibition at 0.1 µM (KDR(VEGFR2)) was 64% and the “Cell Death (%) at Tested Concentration” value ([7]; 0.25 uM) was 2.7%. The “Cell Death (%) at Tested Concentration” value ([7]; 3.0 uM) was 4.2% and the “Cell Death (%) at Tested Concentration” value ([7]; 5.0 uM) was 14.6%.

For `CNC(=O)c1cc(Oc2ccc(NC(=O)Nc3ccc(Cl)c(C(F)(F)F)c3)cc2)ccn1` [Sorafenib, reference compound], the “effect in reducing the tumor volume” value [1] was “significant effect in reducing the tumor volume”, the cytotoxicity at 1 µM ([2]; 72 h, 3-day treatment) was 1.6% and the cytotoxicity at 2.5 µM ([2]; 72 h, 3-day treatment) was 1.7%. It also gave a cytotoxicity at 5 µM ([2]; 72 h, 3-day treatment) of 2.3%, a cytotoxicity at 7.5 µM ([2]; 72 h, 3-day treatment) of 2.4% and a cytotoxicity at 10 µM ([2]; 72 h, 3-day treatment) of 81.3%. It also gave a cytotoxicity at 1 µM ([2]; 168 h, 7-day treatment) of 1.6%, a cytotoxicity at 2.5 µM ([2]; 168 h, 7-day treatment) of 1.6% and a cytotoxicity at 5 µM ([2]; 168 h, 7-day treatment) of 2.8%. The cytotoxicity at 7.5 µM ([2]; 168 h, 7-day treatment) was 14.7%, the cytotoxicity at 10 µM ([2]; 168 h, 7-day treatment) was 99% and the “Cell Death (%) at Tested Concentration” value ([3]; 2.5 uM) was 11.6%. The “Cell Death (%) at Tested Concentration” value ([3]; 5.0 uM) was 14.3%, the “Cell Death (%) at Tested Concentration” value ([3]; 10 uM) was 27.6% and the “Cell Death (%) at Tested Concentration” value ([4]; 0.25 uM) was 3.0%. The “Cell Death (%) at Tested Concentration” value ([4]; 3.0 uM) was 12.5%, the “Cell Death (%) at Tested Concentration” value ([4]; 5.0 uM) was 88.2% and the “Cell Death (%) in combination” value ([6]; AZD-6244 0 μM) was 1.9%. The “Cell Death (%) in combination” value ([6]; AZD-6244 0.5 μM) was 97.3%, the “Cell Death (%) at Tested Concentration” value ([7]; 0.25 uM) was 2.2% and the “Cell Death (%) at Tested Concentration” value ([7]; 3.0 uM) was 6.4%. The “Cell Death (%) at Tested Concentration” value ([7]; 5.0 uM) was 8.2%.
